Experimental findings from US5814634A, “Alkylenediamine derivative anti-ulcer drug and antibacterial drug” (Shiseido Co. Ltd., priority 1996, dated 1998) are described below.

For data set [1], the system named is stress ulcer. Kind of data set: WIS: Restraint and Water Immersion Stress-Induced Ulcer Inhibition Test. The settings on record: for WIS: ulcer formation inhibitory rate: 100 mg/kg oral, rats, water immersion stress 7 hours; for effect (anti-ulcer tests): comparison of examples within compound group 1-1. In kind it is in vivo, rat (male Crj:SD or Slc:SD). How it is done: WIS: Restraint and Water Immersion Stress-Induced Ulcer Inhibition Test
The degree of inhibition of the stress ulcer formation is tested.
Male Crj:SD or Slc:SD rats (6 to 7-week-old) were fasted overnight, but allowed free access to water. Each group has 5 to 8 of these rats. The sample compound was dissolved or suspended in an aqueous solution of 0.3% sodium carboxymethylcellulose or 0.05% Tween 80 and then was orally administered (100 mg/10 ml/kg). To a control group, the vehicle was administered. 10 minutes later, the rats were placed in a stress cage and immersed to the level of xipfoid process in a water bath (21° C.) for 7 hours. At the end of the stress, the rats were sacrificed by inhalation of ether or carbon dioxide. Then, the stomach of each was removed, inflated by injecting 10 ml of 5% formalin neutral buffer solution, and immersed in 1% formalin neutral buffer solution for 30 minutes or more to be fixed. The stomach was incised along the greater curvature and then the length of each erosion in the glandular portion was determined under dissecting microscope. The sum of the length of erosions per stomach was defined as ulcer index (UI).
The effect obtained when 100 mg/kg of the sample compound had been administered was expressed as ulcer formation inhibitory rate (%) as follows: [formula] VOL, TAO: Acid Secretion Inhibition Test In Vivo i) Meaning

The subject of data set [2] is Male Slc:ICR mice. Further details: species or system mouse (male Slc:ICR). The settings on record: mouse, in vivo. Here is the method: AT: Single Dose Toxicity Pretest
Male Slc:ICR mice (5-week-old) were used. Each group has 3 to 5 mice and each mouse was fasted, but allowed free access to water, for 4 to 5 hours from 9 a.m. in the test day. Then, 2,000 mg/10 ml/kg of the sample compound dissolved or suspended in an aqueous solution of 0.5% sodium carboxymethyl cellulose was orally administered thereto. To a control, only the vehicle was administered. […] The body weight was measured before and after the fasting as well as at the same time everyday. The dead animals were immediately subjected to autopsy and their organs were observed microscopically. Also, the living animals were sacrificed with ether or carbon dioxide one week after the administration and then their organs were observed microscopically.
The toxicity at the single dose of 2,000 mg/kg of the sample compound was expressed as being classified into 5 levels.
5: Mortality rate is 0%; no toxicity is found at all both in behavior and organs.
4: Mortality rate is 0%; while no toxicity is found in organs, slight toxicity is observed in behavior and body weight increase.
3: While there is a dead animal (though not all the animals are dead), no toxicity is found in organs.
2: Regardless of whether there is a dead animal or not, toxicity is found in organs.
1: All the animals are dead.

Data set [3] is described as follows: in vitro. The note with it: rabbit, gastric mucosal cells.
Data set [4] relates to isolated gastric fundic gland. Kind of data set: CAP: Acid Secretion Inhibition Test In Vitro ([14C]-aminopyrine uptake). The data set is classed as cell-based, rabbit (male Japanese White). The note with it: Oryctolagus cuniculus, 40 min; 10^-5 M compound, 10^-5 M histamine, rabbit isolated gastric fundic gland, 37° C., 40 minutes; read-out: CAP: acid secretion inhibitory rate. Here is the method: With respect to the gastric juice volume (VOL) and the total acid output (TAO), the effects obtained when 100 mg/kg of the sample compound had been administered were expressed as their respective inhibitory rates (%) as follows: [formula] CAP: Acid Secretion Inhibition Test In Vitro i) Meaning
The acid secretion inhibitory activity in a cell level is studied. It can also be used for studying the mechanism of the effect.
ii-a) Preparation of isolated gastric fundus gland suspension
First, an isolated gastric fundic gland sample was prepared. […] Immediately thereafter, the stomach was removed and, after its pyloric and cardiac antrum were severed, incised along its greater curvature into two sheets. The gastric contents adhering to the mucosal surface was washed out with ice-cooled PBS (-) and then carefully washed therein. The gastric wall was spread on a cork board with its mucosal surface facing up and the feed and mucus thereon were completely removed with sterile gauze. The mucosa was separated therefrom by a spatula and then collected in ice-cooled PBS (-). After being washed twice with PBS (-), the mucosa was minced into 2-3 mm^3 pieces by scissors. These pieces were further washed twice with a nutrient solution. The nutrient solution comprises 132.4 mM of NaCl, 5.4 mM of KCl, 5 mM of Na2 HPO4.12H2 O, 1 mM of NaH2 PO4.2H2 O, 1.2 mM of MgSO4, 1 mM of CaCl2, 25 mM of HEPES, 2 mg/ml of glucose, and 1 mg/ml of BSA. Into 70 ml of the nutrient solution containing 1 mg/ml of collagenase, minced mucosal pieces were dispersed and intensely stirred in a conical flask with a stirrer at 37° C. for 40 to 60 minutes. During this period, 100% O2 was sprayed on the nutrient solution surface and the pH was appropriately measured such that it was immediately adjusted to pH 7.4, when the value was therebelow, with a base. The nutrient solution was added to the reaction solution so as to attain the total amount of about 200 ml. After being filtered through a mesh, the suspension was divisionally introduced into 50 ml centrifuge tubes and left for 15 minutes such that gastric fundic gland was deposited. The supernatant was repeatedly removed by an aspirator, dispersed in the nutrient solution, and then left such that the gastric fundic gland was washed three times. At this time, without using a pipette, the suspension was alternately introduced into two centrifuge tubes so as to effect dispersion. The number of cells was counted under microscope and adjusted to 1.6×10^6 cells/ml.
ii-b) [^14 C]-aminopyrine uptake test
Then, [^14 C]-aminopyrine uptake test was performed. After an Eppendorf tube was weighed, 10 μl (final concentration: 10^-5 M) of histamine dissolved in the above-mentioned nutrient solution, 10 μl (final concentration: 10^-5 M) of the test compound dissolved in DMSO, and 10 μl (final concentration: 0.05 μCi/ml) of [^14 C]-aminopyrine diluted with the nutrient solution were introduced therein and then 970 μl of the isolated gastric fundic gland suspension prepared above was added thereto. Subsequently, this mixture was shaken at 37° C. for 40 minutes at 125 cycles/minute. After being centrifuged for 30 minutes, 200 μl of its supernatant was collected into a mini-vial, while the rest was removed by an aspirator. The gland pellet was completely dried as the tube with its lid being opened was kept for one night in a drying oven at 80° C. and then the lid was closed and the weight was determined at room temperature. Then 100 μl of 1N KOH was added thereto and the tube with its lid being closed was treated at 60° C. for 1 to 2 hours so as to dissolve the pellet. Then, the contents thereof were transferred to a mini-vial. Into the mini-vial containing the supernatant or gland pellet, 4 ml of Atomlite™ was added and then the radioactivity was measured by a liquid scintillation counter. […]

Consider `COc1ccc(C(=O)NCCN2CCCCC2)cc1OC/C=C(\C)CCC=C(C)C` [Example 23], for which the “WIS: ulcer formation inhibitory rate” value in data set [1] was 56%. Besides, in data set [2], the “AT: toxicity at single dose, 5 levels” value was determined as 3. Moreover, the cytotoxicity at 4 h, 100 µM in data set [3] was determined as 43%.
`CC(C)=CCC/C(C)=C/COc1ccc(F)cc1C(=O)NCCN1CCCCC1` [Example 6]: in data set [1], the “WIS: ulcer formation inhibitory rate” value stood at 80%. Further, the “effect (anti-ulcer tests)” value in data set [1] (result in words) was “the effect has been maintained”. Also, in data set [2], the “AT: toxicity at single dose, 5 levels” value is 3. Besides, the cytotoxicity at 4 h, 100 µM in data set [3] came to 16%.
Regarding `COc1cc(C(=O)NCCN2CCCCC2)cc(OC/C=C(\C)CCC=C(C)C)c1OC` [Example 24], in data set [1], the “WIS: ulcer formation inhibitory rate” value was 72%. Besides, the anti-ulcer effect entry in data set [1] (result in words) is recorded as “more anti-ulcer effect”. The “AT: toxicity at single dose, 5 levels” value in data set [2] came out at 5. Further, the cytotoxicity at 4 h, 100 µM in data set [3] stood at 30%.
In the case of `CC(C)=CCC/C(C)=C/COc1ccc(C(=O)NCCN2CCN(Cc3ccc(F)cc3)CC2)cc1` [Example 57], the inhibition at 10 µM in data set [4] came out at 99.4%.
With `CC(C)=CCC/C(C)=C/COc1cccc(C(=O)NCCN2CCCCC2)c1` [Example 4], the “WIS: ulcer formation inhibitory rate” value in data set [1] stood at 84%. The “AT: toxicity at single dose, 5 levels” value in data set [2] was 3.
Regarding `CCC(CC)CN1CCN(CCNC(=O)c2ccc(OC/C=C(\C)CCC=C(C)C)cc2)CC1` [Example 49], in data set [4], the inhibition at 10 µM was determined as 99.8%.
Take `CC(C)=CCOc1ccc(OCC=C(C)C)c(C(=O)NCCN2CCCCC2)c1` [Example 17]: the “WIS: ulcer formation inhibitory rate” value in data set [1] is on record as 70%. Also, the inhibition at 10 µM in data set [4] was 100%. Moreover, the “AT: toxicity at single dose, 5 levels” value in data set [2] turned out to be 3. In addition, the cytotoxicity at 4 h, 100 µM in data set [3] was -16%.
On to `CCN(CCN1CCCCC1)C(=O)c1ccc(OC/C=C(\C)CCC=C(C)C)cc1` [Example 8], for which the “WIS: ulcer formation inhibitory rate” value in data set [1] worked out at 67%. Also, in data set [1] (result in words), the “effect (anti-ulcer tests)” value is “a sufficient effect can be obtained”. In data set [4], the inhibition at 10 µM worked out at 100%. The cytotoxicity at 4 h, 100 µM in data set [3] came to 41%.
For the molecule `CC(C)=CCC/C(C)=C\COc1ccc(C(=O)NCCN2CCCCC2)cc1` [Example 2], in data set [1], the “WIS: ulcer formation inhibitory rate” value came to 79%. For the same molecule, the “AT: toxicity at single dose, 5 levels” value in data set [2] was 3.
As for `CC(C)=CCC/C(C)=C/COc1ccc(C(=O)NCCN2CCN(Cc3ccccc3)CC2)cc1` [Example 56], the inhibition at 10 µM in data set [4] came to 99.4%.
For `CC(C)=CCC/C(C)=C/COc1ccc(C(=O)NCCN2CCN(CCC(C)C)CC2)cc1` [Example 47], the inhibition at 10 µM in data set [4] is 101%.
Consider `CCN1CCN(CCNC(=O)c2ccc(OC/C=C(\C)CCC=C(C)C)cc2)CC1` [Example 45], for which the “WIS: ulcer formation inhibitory rate” value in data set [1] was found to be 36%. In data set [4], the inhibition at 10 µM is 99%. Further, the cytotoxicity at 4 h, 100 µM in data set [3] amounted to 30%.
Consider `CC(C)=CCOc1cc(C(=O)NCCN2CCOCC2)cc(OCC=C(C)C)c1OCC=C(C)C` [Example 39], for which the “WIS: ulcer formation inhibitory rate” value in data set [1] is recorded as 76%. The “AT: toxicity at single dose, 5 levels” value in data set [2] was found to be 4.
Consider `CC(C)=CCC/C(C)=C/CSc1ccccc1C(=O)NCCN1CCOCC1` [Example 33], for which the “WIS: ulcer formation inhibitory rate” value in data set [1] amounted to 49%. Moreover, the inhibition at 10 µM in data set [4] came out at 100%. The cytotoxicity at 4 h, 100 µM in data set [3] amounted to 5%.
As to `COc1cc(C(=O)NCCN2CCCCC2)ccc1OC/C=C(\C)CCC=C(C)C` [Example 25], the “WIS: ulcer formation inhibitory rate” value in data set [1] was 44%. Besides, the “AT: toxicity at single dose, 5 levels” value in data set [2] is recorded as 3. In data set [3], the cytotoxicity at 4 h, 100 µM came out at 48%.
On the same counts, the results for `CC(C)=CCC/C(C)=C/COc1cc(OC/C=C(\C)CCC=C(C)C)cc(C(=O)NCCN2CCCCC2)c1` [Example 14] are 66%, 3 and 26%.
Regarding `CC(C)=CCC/C(C)=C/COc1ccc(C(=O)NCCN2CCN(CC(=O)NC(C)C)CC2)cc1` [Example 54], in data set [4], the inhibition at 10 µM is 100%.
`CC(C)=CCC/C(C)=C/COc1ccc(C(=O)NCCN2CCN(c3ccccc3)CC2)cc1` [Example 52]: the inhibition at 10 µM in data set [4] amounted to 99.1%. For the same molecule, the cytotoxicity at 4 h, 100 µM in data set [3] was determined as 11%.
With `CC(C)=CCC/C(C)=C/COc1ccc(C(=O)NCCN2CCN(Cc3ccc4c(c3)OCO4)CC2)cc1` [Example 58], the “WIS: ulcer formation inhibitory rate” value in data set [1] came to 48%. In data set [4], the inhibition at 10 µM was 100%.
Consider `COc1ccc(N2CCN(CCNC(=O)c3ccc(OC/C=C(\C)CCC=C(C)C)cc3)CC2)cc1` [Example 53], for which, in data set [4], the inhibition at 10 µM worked out at 98.7%. In addition, the cytotoxicity at 4 h, 100 µM in data set [3] stood at 7%.
`CC(C)=CCOc1cc(C(=O)NCCN2CCCCC2)cc(OCC=C(C)C)c1OCC=C(C)C` [Example 19]: the “WIS: ulcer formation inhibitory rate” value in data set [1] turned out to be 57%. Moreover, the “AT: toxicity at single dose, 5 levels” value in data set [2] worked out at 4.
`CC(C)=CCC/C(C)=C/COc1ccc(C(=O)NCCN2CCN(c3ncccn3)CC2)cc1` [Example 61]: the inhibition at 10 µM in data set [4] was 100%. Moreover, the cytotoxicity at 4 h, 100 µM in data set [3] stood at 3%.
Take `CC(C)=CCC/C(C)=C/COc1ccc(C(=O)NCCN2CCN(CC(C)(C)C)CC2)cc1` [Example 48]: the inhibition at 10 µM in data set [4] stood at 100%.
With `COc1ccc(OC/C=C(\C)CCC=C(C)C)c(C(=O)NCCN2CCCCC2)c1` [Example 20], the “WIS: ulcer formation inhibitory rate” value in data set [1] was 71%. Further, the “AT: toxicity at single dose, 5 levels” value in data set [2] amounted to 3. In addition, in data set [3], the cytotoxicity at 4 h, 100 µM came to 35%.
Turning to `CCCCN1CCN(CCNC(=O)c2ccc(OC/C=C(\C)CCC=C(C)C)cc2)CC1` [Example 50], in data set [4], the inhibition at 10 µM is 95.9%.
With `CC(C)=CCC/C(C)=C/COc1ccc(C(=O)NCCN2CCN(c3nccs3)CC2)cc1` [Example 60], the inhibition at 10 µM in data set [4] is 100%. Moreover, the cytotoxicity at 4 h, 100 µM in data set [3] worked out at 7%.
Regarding `CCCCC(CC)CN1CCN(CCNC(=O)c2ccc(OC/C=C(\C)CCC=C(C)C)cc2)CC1` (stereo not drawn) [Example 51], the inhibition at 10 µM in data set [4] was found to be 94.8%.
